In patent US10092575B2, “Substituted thiophene- and furan-fused azolopyrimidine-5-(6H)-one compounds” (DART NEUROSCIENCE (CAYMAN) LTD., priority 2012, dated 2018):

Biological target: human PDE1b enzyme (Homo sapiens (Human), UniProt Q01064)
Assay: PDE1b inhibitory assay (IMAP TR-FRET)
Conditions: for PDE1b (pEC50): negative log of half-maximal molar inhibitory concentration, 200 nM FAM-cAMP, reported as ranges
Method: PDE1b inhibition was determined by an IMAP TR-FRET assay. The IMAP TR-FRET PDE assay was optimized for concentration of enzyme, Calmodulin, cAMP or cGMP substrate, DMSO tolerance, and incubation time.
After a brief centrifugation, the plates were incubated for 30 minutes at room temperature. The assay was terminated by adding 5 μL IMAP binding reagent/Tb complex (Molecular Devices, Sunnyvale, Calif.) to each well.
Plates were incubated 1 hour at room temperature and read on a Viewlux multimode plate reader (Perkin Elmer). The instrument was set to excite using the DUG11 filter and measure using 490/10 nm and 520/10 nm filters. Ratios of acceptor and donor were then calculated.
For EC50 calculations, the values of % efficacy versus a series of compound concentrations were then plotted using non-linear regression analysis of sigmoidal dose-response curves generated with the equation Y=B+(T−B)/1+10((Log EC50−X)×Hill Slope), where Y=percent activity, B=minimum percent efficacy, T=maximum percent efficacy, X=logarithm of compound and Hill Slope=slope factor or Hill coefficient. The EC50 value was determined by the concentration causing a half-maximal percent efficacy.

| SMILES | EC50 [nM] | PDE1b (pEC50) |
| --- | --- | --- |
| COc1ccc(Cn2c(=O)n3ncnc3c3cc(CN4CCN(C)CC4)sc32)cc1 [Example 32, 6-(4-Methoxybenzyl)-8-((4-methylpiperazin-1-yl)methyl)thieno[3,2-e][1,2,4]triazolo[1,5-c]pyrimidin-5(6H)-one] | 100 to 1000 | – |
| COc1ccc(Cn2c(=O)n3ncnc3c3cc(CN4C[C@@H](C)O[C@@H](C)C4)sc32)cc1 [Example 33, 8-(((2S,6R)-2,6-Dimethylmorpholino)methyl)-6-(4-methoxybenzyl)thieno[3,2-e][1,2,4]triazolo[1,5-c]pyrimidin-5(6H)-one] | – | >7 |
| CCN1CCN(Cc2cc3c(s2)n(Cc2ccc(OC)cc2)c(=O)n2ncnc32)CC1=O [Example 34, 8-((4-Ethyl-3-oxopiperazin-1-yl)methyl)-6-(4-methoxybenzyl)thieno[3,2-e][1,2,4]triazolo[1,5-c]pyrimidin-5(6H)-one] | – | >7 |
| COc1ccc(Cn2c(=O)n3ncnc3c3cc(CN4CCN(S(C)(=O)=O)CC4)sc32)cc1 [Example 35, 6-(4-Methoxybenzyl)-8-((4-(methylsulfonyl)piperazin-1-yl)methyl)thieno[3,2-e][1,2,4]triazolo[1,5-c]pyrimidin-5(6H)-one] | – | >7 |
| COc1ccc(Cn2c(=O)n3ncnc3c3cc(CN4CCOC(C)(C)C4)sc32)cc1 [Example 36] | – | >7 |
| COc1ccc(Cn2c(=O)n3ncnc3c3cc(CN4CC5CC4CO5)sc32)cc1 (stereo not drawn) [Example 37, 8-(2-Oxa-5-azabicyclo[2.2.1]heptan-5-ylmethyl)-6-(4-methoxybenzyl)thieno[3,2-e][1,2,4]triazolo[1,5-c]pyrimidin-5(6H)-one] | – | >7 |
| COc1ccc(Cn2c(=O)n3ncnc3c3cc(CN4CC5(CCOCC5)C4)sc32)cc1 [Example 38, 8-(7-Oxa-2-azaspiro[3.5]nonan-2-ylmethyl)-6-(4-methoxybenzyl)thieno[3,2-e][1,2,4]triazolo[1,5-c]pyrimidin-5(6H)-one] | – | >7 |
| COc1ccc(Cn2c(=O)n3ncnc3c3cc(CN4CCC5(CC4)COC5)sc32)cc1 [Example 39, 8-(2-Oxa-7-azaspiro[3.5]nonan-7-ylmethyl)-6-(4-methoxybenzyl)thieno[3,2-e][1,2,4]triazolo[1,5-c]pyrimidin-5(6H)-one] | – | >7 |
| COc1ccc(Cn2c(=O)n3ncnc3c3cc(CN4CCN5C(=O)OCC5C4)sc32)cc1 (stereo not drawn) [Example 40, 7-((6-(4-Methoxybenzyl)-5-oxo-5,6-dihydrothieno[3,2-e][1,2,4]triazolo[1,5-c]pyrimidin-8-yl)methyl)tetrahydro-1H-oxazolo[3,4-a]pyrazin-3(5H)-one] | – | >7 |
| COc1ccc(Cn2c(=O)n3ncnc3c3cc(-c4cc(C(F)(F)F)nn4C)sc32)cc1 [Example 41, 6-(4-Methoxybenzyl)-8-(1-methyl-3-(trifluoromethyl)-1H-pyrazol-5-yl)thieno[3,2-e][1,2,4]triazolo[1,5-c]pyrimidin-5(6H)-one] | – | >7 |
| COc1ccc(Cn2c(=O)n3ncnc3c3cc(-c4c(C)noc4C)sc32)cc1 [Example 42, 8-(3,5-Dimethylisoxazol-4-yl)-6-(4-methoxybenzyl)thieno[3,2-e][1,2,4]triazolo[1,5-c]pyrimidin-5(6H)-one] | 100 to 1000 | – |
| COc1ccc(Cn2c(=O)n3ncnc3c3c(C)c(CN4CCCC4)sc32)cc1 [Example 43, 6-(4-Methoxybenzyl)-9-methyl-8-(pyrrolidin-1-ylmethyl)thieno[3,2-e][1,2,4]triazolo[1,5-c]pyrimidin-5(6H)-one] | 100 to 1000 | – |
| COc1ccc(Cn2c(=O)n3ncnc3c3c(C)c(CN4CCOCC4)sc32)cc1 [Example 44, 6-(4-Methoxybenzyl)-9-methyl-8-(morpholinomethyl)thieno[3,2-e][1,2,4]triazolo[1,5-c]pyrimidin-5(6H)-one] | – | >7 |
| COc1ccc(Cn2c(=O)n3ncnc3c3c(C)c(CN(C)C)sc32)cc1 [Example 45, 8-((Dimethylamino)methyl)-6-(4-methoxybenzyl)-9-methylthieno[3,2-e][1,2,4]triazolo[1,5-c]pyrimidin-5(6H)-one] | – | >7 |
| COc1ccc(Cn2c(=O)n3ncnc3c3c(C)c(CN(C)C4CC4)sc32)cc1 [Example 46, 8-((Cyclopropyl(methyl)amino)methyl)-6-(4-methoxybenzyl)-9-methylthieno[3,2-e][1,2,4]triazolo[1,5-c]pyrimidin-5(6H)-one] | – | >7 |
| COc1ccc(Cn2c(=O)n3ncnc3c3c(C)c(CN4CCC(O)CC4)sc32)cc1 [Example 47, 8-((4-Hydroxypiperidin-1-yl)methyl)-6-(4-methoxybenzyl)-9-methylthieno[3,2-e][1,2,4]triazolo[1,5-c]pyrimidin-5(6H)-one] | – | >7 |
| COc1ccc(Cn2c(=O)n3ncnc3c3c(C)c(CN(CCO)Cc4ccccc4)sc32)cc1 [Example 48, 8-((Benzyl(2-hydroxyethyl)amino)methyl)-6-(4-methoxybenzyl)-9-methylthieno[3,2-e][1,2,4]triazolo[1,5-c]pyrimidin-5(6H)-one] | – | >7 |

| SMILES | EC50 [nM] | PDE1b (pEC50) |
| --- | --- | --- |
| COc1ccc(Cn2c(=O)n3ncnc3c3c(C)c(CN4CCNCC4)sc32)cc1 [Example 49, 6-(4-Methoxybenzyl)-9-methyl-8-(piperazin-1-ylmethyl)thieno[3,2-e][1,2,4]triazolo[1,5-c]pyrimidin-5(6H)-one] | 100 to 1000 | – |
| COc1ccc(Cn2c(=O)n3ncnc3c3c(C)c(CNCC4(C)COC4)sc32)cc1 [Example 50, 6-(4-Methoxybenzyl)-9-methyl-8-((((3-methyloxetan-3-yl)methyl)amino)methyl)thieno[3,2-e][1,2,4]triazolo[1,5-c]pyrimidin-5(6H)-one] | – | >7 |
| COc1ccc(Cn2c(=O)n3ncnc3c3c(C)c(CN4CCN(C(C)=O)CC4)sc32)cc1 [Example 51, 8-((4-Acetylpiperazin-1-yl)methyl)-6-(4-methoxybenzyl)-9-methylthieno[3,2-e][1,2,4]triazolo[1,5-c]pyrimidin-5(6H)-one] | – | >7 |
| COc1ccc(Cn2c(=O)n3ncnc3c3c(C)c(CNCc4cccnc4)sc32)cc1 [Example 52, 6-(4-Methoxybenzyl)-9-methyl-8-(((pyridin-3-ylmethyl)amino)methyl)thieno[3,2-e][1,2,4]triazolo[1,5-c]pyrimidin-5(6H)-one] | – | >7 |
| COc1ccc(Cn2c(=O)n3ncnc3c3c(C)c(CN4CCNC(=O)C4)sc32)cc1 [Example 53, 6-(4-Methoxybenzyl)-9-methyl-8-((3-oxopiperazin-1-yl)methyl)thieno[3,2-e][1,2,4]triazolo[1,5-c]pyrimidin-5(6H)-one] | – | >7 |
| COc1ccc(Cn2c(=O)n3ncnc3c3c(C)c(CN(C)CC4CCCO4)sc32)cc1 (stereo not drawn) [Example 54, 6-(4-Methoxybenzyl)-9-methyl-8-((methyl((tetrahydrofuran-2-yl)methyl)amino)methyl)thieno[3,2-e][1,2,4]triazolo[1,5-c]pyrimidin-5(6H)-one] | – | >7 |
| COc1ccc(Cn2c(=O)n3ncnc3c3c(C)c(CN4C[C@@H](C)O[C@@H](C)C4)sc32)cc1 [Example 55, 8-(((2S,6R)-2,6-Dimethylmorpholino)methyl)-6-(4-methoxybenzyl)-9-methylthieno[3,2-e][1,2,4]triazolo[1,5-c]pyrimidin-5(6H)-one] | – | >7 |
| COc1ccc(Cn2c(=O)n3ncnc3c3c(C)c(CN4Cc5ccccc5C4)sc32)cc1 [Example 56, 8-(Isoindolin-2-ylmethyl)-6-(4-methoxybenzyl)-9-methylthieno[3,2-e][1,2,4]triazolo[1,5-c]pyrimidin-5(6H)-one] | – | >7 |
| COc1ccc(Cn2c(=O)n3ncnc3c3c(C)c(CNC4CC4)sc32)cc1 [Example 57, 8-((Cyclopropylamino)methyl)-6-(4-methoxybenzyl)-9-methylthieno[3,2-e][1,2,4]triazolo[1,5-c]pyrimidin-5(6H)-one] | – | >7 |
| COC[C@@H]1CCCN1Cc1sc2c(c1C)c1ncnn1c(=O)n2Cc1ccc(OC)cc1 [Example 58, (S)-6-(4-Methoxybenzyl)-8-((2-(methoxymethyl)pyrrolidin-1-yl)methyl)-9-methylthieno[3,2-e][1,2,4]triazolo[1,5-c]pyrimidin-5(6H)-one] | – | >7 |
| COc1ccc(Cn2c(=O)n3ncnc3c3c(C)c(CN(C)CC4CCOC4)sc32)cc1 (stereo not drawn) [Example 59, 6-(4-Methoxybenzyl)-9-methyl-8-((methyl((tetrahydrofuran-3-yl)methyl)amino)methyl)thieno[3,2-e][1,2,4]triazolo[1,5-c]pyrimidin-5(6H)-one] | – | >7 |
| COc1ccc(Cn2c(=O)n3ncnc3c3c(C)c(CN4CCCOCC4)sc32)cc1 [Example 61, 8-((1,4-Oxazepan-4-yl)methyl)-6-(4-methoxybenzyl)-9-methylthieno[3,2-e][1,2,4]triazolo[1,5-c]pyrimidin-5(6H)-one] | – | >7 |
| COc1ccc(Cn2c(=O)n3ncnc3c3c(C)c(CN4CCN(S(C)(=O)=O)CC4)sc32)cc1 [Example 63, 6-(4-Methoxybenzyl)-9-methyl-8-((4-(methylsulfonyl)piperazin-1-yl)methyl)thieno[3,2-e][1,2,4]triazolo[1,5-c]pyrimidin-5(6H)-one] | – | >7 |
| COc1ccc(Cn2c(=O)n3ncnc3c3c(C)c(CN4CCN(C(C)C)CC4)sc32)cc1 [Example 64, 8-((4-Isopropylpiperazin-1-yl)methyl)-6-(4-methoxybenzyl)-9-methylthieno[3,2-e][1,2,4]triazolo[1,5-c]pyrimidin-5(6H)-one] | – | >7 |
| COc1ccc(Cn2c(=O)n3ncnc3c3c(C)c(CN4CC5CC4CO5)sc32)cc1 (stereo not drawn) [Example 65, 8-(2-Oxa-5-azabicyclo[2.2.1]heptan-5-ylmethyl)-6-(4-methoxybenzyl)-9-methylthieno[3,2-e][1,2,4]triazolo[1,5-c]pyrimidin-5(6H)-one] | – | >7 |
| CCN1CCN(Cc2sc3c(c2C)c2ncnn2c(=O)n3Cc2ccc(OC)cc2)CC1=O [Example 66, 8-((4-Ethyl-3-oxopiperazin-1-yl)methyl)-6-(4-methoxybenzyl)-9-methylthieno[3,2-e][1,2,4]triazolo[1,5-c]pyrimidin-5(6H)-one] | – | >7 |
